Patent US11376580B2, “Methods and systems comprising modified pipettes for transferring and preserving biomaterial” (UNIVERSITY OF PITTSBURGH—OF THE COMMONWEALTH SYSTEM OF …, priority 2017, dated 2022)
Where two headings read alike, the source gives them in different places.

Legend:
[1] = tested on: primary human hepatocytes
[2] = tested on: HEK293 cells
[3] = in vitro; conditions: human
[4] = in vitro; conditions: human; remark: listed apart in the source
[5] = tested on: HEK293 cells; remark: listed apart in the source
[6] = in vitro; conditions: human; remark: listed apart in the source
[7] = tested on: primary human hepatocytes; conditions: for Metabolite Generation (marker metabolite of the probe): 10 uM
Experimental: Probe metabolism was tested as a fresh hepatocyte suspension culture, as a fresh agarose gelled BioActivator and after thawing a cryopreserved BioActivator. In all three testing conditions 50,000 viable hepatocytes were tested as following: (a) as a suspension in 500 μl of probe media, or, (b) in 50 μl of gelled agarose submerged in 450 μl of probe media. Cryopreserved BioActivators were thawed for testing after 48 hours at −80° C. Probe media was collected from the 3 test conditions at 30 minutes and 18 hours. Ice-cold acetonitrile containing 10 μM chlorzoxazone (internal extraction standard) was added at a 2:1 ratio to the collected media. The extraction mixture was analyzed by LC MS/MS.

[8] = tested on: Human primary hepatocytes; assay type: in vitro ADME
[9] = HEK293 Cytotoxicity LC50, HEK293 + BioActivator Pre-Conditioned Media
[10] = HEK293 Cytotoxicity LC50, HEK 293 + Cell Free Agarose Bead Pre-Conditioned Media
[11] = HEK293 Cytotoxicity LC50, HEK293 + BioActivator
[12] = HEK293 Cytotoxicity LC50, HEK 293 + cell free agarose beads
[13] = HEK293 Cytotoxicity LC50, HEK293 + BioActivator Pre-Conditioned Media, compounds pre-conditioned 24 h in BioActivator, then 24 h on HEK293, Mean ± SD (N = 3)
[14] = HEK293 Cytotoxicity LC50, HEK293 + BioActivator, co-cultured 24 hours with BioActivators, Mean ± SD (N = 3), max 250 μM
[15] = HEK293 Cytotoxicity LC50, HEK 293 + cell free agarose beads, co-cultured 24 hours with cell free agarose beads, Mean ± SD (N = 3), max 250 μM

Nc1ccc2ccccc2c1 [2-Napthylamine, 2-Napthylamine]
CC50 [1]: > 250 µM
HEK293 cytotoxicity co-cultured with BioActivator (in words) [2]: No HEK293 cytotoxicity
HEK293 cytotoxicity co-cultured with cell free agarose bead (in words) [2]: No HEK293 cytotoxicity

O=[N+]([O-])c1ccc(O)cc1 [4-Nitrophenol, 4-Nitrophenol]
CC50 [3]: > 250 µM
CC50 [4, 9]: 199 µM
CC50 [4, 10]: > 250 µM
HEK293 cytotoxicity of compounds pre-conditioned in the BioActivator (in words) [5]: produce cytotoxicity
CC50 [6, 11]: 101 µM
CC50 [6, 12]: > 250 µM

Nc1cc2c3ccccc3ccc2c2ccccc12 [6-Aminochrysene]
CC50 [3]: > 250 µM
CC50 [4, 13]: 241 ± 9.8 µM
HEK293 cytotoxicity of compounds pre-conditioned in the BioActivator (in words) ([5]; compared to compounds pre-conditioned in cell free agarose beads): produce cytotoxicity
CC50 [6, 14]: 84 ± 2 µM
CC50 [6, 15]: > 250 µM

C=CC(N)=O [Acrylamide]
CC50 [3]: > 250 µM
CC50 [4, 9]: > 250 µM
CC50 [4, 10]: > 250 µM
CC50 [6, 11]: 167 ± 7.9 µM
CC50 [6, 12]: > 250 µM

c1ccc2c(c1)cc1ccc3cccc4ccc2c1c34 [Benzo[a]pyrene]
CC50 [3]: > 250 µM
CC50 [4, 13]: > 250 µM
CC50 [6, 14]: > 250 µM
CC50 [6, 15]: > 250 µM
HEK293 cytotoxicity co-cultured with BioActivator (in words) ([2]; 24 h co-culture with BioActivator, up to 250 μM, compared to cell free agarose bead): No HEK293 cytotoxicity
HEK293 cytotoxicity co-cultured with cell free agarose bead (in words) ([2]; 24 h co-culture with cell free agarose bead, up to 250 μM): No HEK293 cytotoxicity

O=P1(N(CCCl)CCCl)NCCCO1 (stereo not shown) [Cyclophosphamide]
CC50 [3]: > 250 µM
CC50 [4, 9]: > 250 µM
CC50 [4, 10]: > 250 µM
CC50 [6, 11]: > 250 µM
CC50 [6, 12]: > 250 µM
HEK293 cytotoxicity co-cultured with BioActivator (in words) ([2]; human): No HEK293 cytotoxicity
HEK293 cytotoxicity co-cultured with cell free agarose bead (in words) ([2]; human): No HEK293 cytotoxicity

O=C(O)Cc1ccccc1Nc1c(Cl)cccc1Cl [Diclofenac]
Effect of cryopreservation on hepatocyte clearance of probe (in words) [7]: minimal impact
Metabolite Generation (marker metabolite of the probe) ([7]; human, 30 min): 0.98 pmol/min/10^6 hepatocytes
Metabolite generation in slotted pipette tip compared with control hepatocyte suspension cultures (in words) [8]: compare favorably

COc1cccc2c1C(=O)c1c(O)c3c(c(O)c1C2=O)C[C@@](O)(C(=O)CO)C[C@@H]3O[C@H]1C[C@H](N)[C@H](O)[C@H](C)O1 [Doxorubicin]
CC50 [3]: 104 ± 4.6 µM
Cytotoxicity in BioActivator hepatocytes at end of co-culture (in words) [1]: cytotoxicity was evident
Cytotoxicity in BioActivator hepatocytes at end of co-culture (in words) ([1]; human): LC50 responses
CC50 [4, 13]: 71 ± 2.7 µM
HEK293 cytotoxicity of compounds pre-conditioned in the BioActivator (in words) [5]: produce cytotoxicity
CC50 [6, 14]: 59 ± 5.1 µM
CC50 [6, 15]: 108 ± 9.3 µM
HEK293 cytotoxicity co-cultured with BioActivator (in words) ([2]; human): measurable LC50 responses
HEK293 cytotoxicity co-cultured with cell free agarose bead (in words) ([2]; human): measurable LC50

CCOc1ccc(NC(C)=O)cc1 [Phenacetin]
Metabolite generation in slotted pipette tip compared with control hepatocyte suspension cultures (in words) [8]: compare favorably

O=C1OC(c2ccc(O)cc2)(c2ccc(O)cc2)c2ccccc21 [Phenolphthalein]
Effect of cryopreservation on hepatocyte clearance of probe (in words) [7]: minimal impact
Metabolite Generation (marker metabolite of the probe) ([7]; 30 min): 0.12 pmol/min/10^6 hepatocytes
Metabolite Generation (marker metabolite of the probe) ([7]; 18 h): 0.02 pmol/min/10^6 hepatocytes
Metabolite generation in slotted pipette tip compared with control hepatocyte suspension cultures (in words) [8]: compare favorably

O=c1ccc2ccccc2o1 [coumarin]
Metabolite generation in slotted pipette tip compared with control hepatocyte suspension cultures (in words) [8]: compare favorably

Aflatoxin B1
HEK293 cytotoxicity co-cultured with BioActivator (in words) [2]: No HEK293 cytotoxicity
HEK293 cytotoxicity co-cultured with cell free agarose bead (in words) [2]: No HEK293 cytotoxicity
